# Experimental data as given in US20260139017A1, “COMPOSITIONS AND METHODS USING REELIN IN ALZHEIMER'S DISEASE” (The General Hospital Corporation, priority 2022, published 2026).
# What was measured:
# [1] = Bio-layer interferometry (BLI) of Fc-fusion CTR-RELN on heparin coated biosensor; format: binding; conditions: Fc-fusion (short, furin-cleaved) CTR
# Description: We used Fc-fusion Reelin CTR peptides since peptides alone would be smaller than the limit of detection in this experimental design. To assess heparin—Fc-Reelin interaction, the octet system (bio-layer interferometry) was used to assess heparin-protein kinetics. 50 μg/mL biotinylated heparin was immobilized on the biosensor tip surface for 300 sec on preconditioned biosensors. This was followed by quenching with biocytin at 50 μg/ml, baseline buffer diluent for 120 sec, 200 nM of analyte (Fc-fusion proteins) for 120 sec, and disassociation in assay buffer for 120 sec.
# The experimental data were fit with the 1:1 binding model and analyzed with global fitting using Octet Data Analysis software to calculate KD.
# VLDLr = biological target: T1, VLDLr (Homo sapiens, UniProt P98155); test: ELISA cell-free binding of RELN variants to VLDLr
# T1 construct: purchased R&D 8444-VL
# Description: Enzyme-linked immunosorbent assay (ELISA) was used to quantify changes in binding of RELN variants (media-derived full-length or CTR-RELN) to either VLDLr or ApoEr2 following an optimized version of a previously published protocol (6). Briefly, ELISA strips (DY008, R&D Systems) were coated with one ng/μL (100 μL/well) of VLDLr (8444-VL, R&D) or ApoEr2 (TP320903, OnGene) receptors diluted in 25 mM Tris HCl, 140 mM NaCl, […], two mM CaCl2), pH 7.4 (TBS-C buffer). After 18 h at four ° C. incubation, plates were blocked one h with three % BSA (22070008-6, Bioworld), 0.05% Tween-20 (Sigma Aldrich) TBS-C buffer. We assessed binding via incubation with 100 μL/well of serial dilutions of recombinant RELN protein (Ser1221-Gln2666, 8546-MR-050, R&D) or RELN variants in TBS-C buffer for one hour at room temperature. For detection, we used goat anti-mouse RELN primary antibody (LS-C793521-100, LS-Bio, 1:2,000, 100 μL/well) as primary antibody for one h at R.T. and (1:10,000; 100 μL/well, donkey anti-goat IgG H&L, HRP, ab6885, Abcam) as secondary antibody for 30 min. at R.T. Between each of the previous steps, plates were washed four times with TBS-C buffer (200 μL/well). Plates were washed three times prior to initiating the colorimetric reaction (DY008, R&D Systems). Stop solution (50 μL/well, DY008, R&D Systems) was added upon five min. incubation and the absorbance of the samples was measured at 450 nm using the Synergy 2 microplate reader (BioTek Instruments). Processing and analysis of the data was done using Gen5 1.11 software and GraphPad Prism, respectively.
# Aβ42 = biological target: T2, Aβ42 (Homo sapiens, UniProt P05067); test: Thioflavin T (ThT) Aβ aggregation assay; format: biochemical; conditions: Aβ42 55 μM, 10 μM peptide, vs Aβ alone
# T2 construct: SensoLyte ThT O-Amyloid (1-42) Aggregation kit
# T2 sequence (P05067 672-713 limits assumed): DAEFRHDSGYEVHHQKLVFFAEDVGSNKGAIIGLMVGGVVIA
# Description: Therefore, the ThT assay can be used to quantify AB aggregation using previously developed methods (40).
# We incubated CTR-RELN with Aβ and monitored aggregation using a ThioflavinT fluorescence assay normalized to the maximum ThT emission of Aβ only. We also assayed Aβ in the presence of morin, a known inhibitor (41), as a […]. Long and short WT and H3447R RELN CTR peptides were included to better understand the potential role of the H3447R mutation in amyloid pathology (FIGS. 14 and 15. Negative controls included long and short RELN CTR peptides with neutrally charged AAs (histidines) in place of basic AAs in the alpha- and beta-GAG binding sites.
# A Thioflavin T (ThT) assay was also performed using synthetic Reelin peptides to assess the differential effects of these proteins on Aβ42 aggregation in vitro using Thioflavin T (SensoLyte ThT O-Amyloid (1-42) Aggregation kit, catalog no. ΔS-72214). Aβ42 was added to a final concentration of 55 μM in solutions of 10 μM of Reelin peptide variants in a transparent, no-binding 96-well plate. Samples were then mixed with 2 mM Thioflavin T dye and fluorescence was read at excitation wavelength/emission wavelength (Ex/Em)=440/484 nm at intermittent time intervals over 2 h. The plate was kept at 37° C. with 15 s shaking between reads. […] In general, it appears that the RELN Cterm domain is highly unstructured. […] If the mini-RELN includes the C-term domain only without a receptor binding domain then the protection will not involve signaling, but will still involve direct interactions with tau. If the mini-RELN includes the C-term domain and the receptor binding domain, it will have at least two protective mechanisms, namely RELN signaling and direct interactions with tau.
# [2] = Heparin HPLC, peak retention time in KCl elution; format: binding; conditions: isocratic 1M KCl elution, long and short peptides
# Description: […] 50 μl of 0.3 μg/μL uncleaved or cleaved WT Reelin peptide was used at 0.3 ml/min in 0.15MKCl, 10 mM PBS. 0-13.5 min: 0.15M KCl to load sample, 13.5-14.5 min: ramp to 0.5M KCl, 14.5-24.5 min: 0.5-1M KCl gradient (ramp), 24.5-45 min: 1M KCl (isocratic elution), 45-55 min: 1M KCl at 0.6 ml/min (wash), 55.0-56.0 min: ramp to 0.15M KCl at 0.3 ml/min, 56.0-59.0 min: 0.15M KCl (reset column). Fluorescence Intensities were measured at an excitation wavelength of 260 nm and emission wavelength of 290 nm, based on fluorescence properties of aromatic amino acids. To assess fluorescence properties of peptides, 15 ul of ˜0.6 ug/mL of peptide was diluted in 500 μL of 0.15MKCl, 10 mM PBS, and peak excitation and emission of peptides was calculated from the 2D graphical data.
# The column chromatography method was adapted from previous research from the laboratory (2). Based on the column chromatography data, the initial protocol used a NaCl gradient from 0-1 M and a 5M salt wash to reset the HPLC column. However, the high salt gradient was corrosive to the HPLC machine parts. Therefore, KCl was considered because the […]. A lower molar concentration of a buffer with KCl could be used to disrupt heparin—Reelin CTR interactions compared to NaCl to help keep the HPLC pumps free of residual salts and potential corrosion. Since a lower concentration of salt was used, the amount of time needed at an […] hold of 1M KCl was extended until the peptide signal could not be detected before the column was equilibrated for the next sample.
# [3] = Isothermal titration calorimetry (ITC) of CTR-RELN with heparin; format: binding; conditions: titrated with 5 μM heparin, vs WT
sequence,measurement,setting,value
RKQNYMMNFSRQHGLRRFYNRRRRSLRRYP [CTR-RELN H3447R],interaction/affinity with heparin relative to WT,[1]; listed as H3447R,~2 fold
same,interaction/affinity with heparin relative to WT,[1]; listed as RELN H3447R,about 2 fold
same,binding to VLDLr,VLDLr,unable to bind directly
same,Aβ aggregation (ThT fluorescence),Aβ42; listed as COLBOS variant,enhanced this effect
same,Aβ aggregation (ThT fluorescence),Aβ42; listed as H3447R,did not significantly affect Aβ aggregation compared to WT
same,Aβ aggregation (ThT fluorescence),Aβ42; listed as RELN H3447R,similarly effective at inhibiting ThT aggregation as WT
same,peak retention time on heparin HPLC,[2]; listed as H3447R,increased later peak retention times
same,peak retention time on heparin HPLC,[2]; listed as H3447R Reelin,significantly later peak retention time
same,peak retention time on heparin HPLC,[2]; listed as RELN H3447R,delayed peak times
same,thermodynamics of heparin interaction,[3],enhanced interactions
